Laboratory results from US7947707B2, “Nitrogenated heterocyclic compound and pharmaceutical composition comprising the same” (Kissei Pharmaceutical Co., Ltd., priority 2005, dated 2011).

What was measured:
[1] = molecular target: T1, xanthine oxidase (from buttermilk) (Bos taurus, UniProt P80457); test: Xanthine oxidase inhibitory effect; assay type: biochemical; settings: 100 μmol/L xanthine, 5 mU/mL enzyme; read-out: X.O. inhibition IC50
T1 construct: xanthine oxidase (from buttermilk; biozyme laboratories); purchased biozyme laboratories; host or cells: buttermilk (natural source)
Description: Assay for inhibition of xanthine oxidase was performed in 100 μmol/L substrate concentration (final concentration), 5 mU/mL enzyme concentration (final concentration) and compounds of the present invention as test compounds which were prepared with xanthine oxidase (from buttermilk; biozyme laboratories), xanthine (Sigma) and phosphate-buffered saline (PBS). In addition, all test compounds were frozen for preservation in condition of 20 mmol/L DMSO solution and used for experiments after thawing at need. Method is following: after diluted solution of test compound was added to 90 μL of 11.1 mU/mL enzyme solution, the mixture was incubated for 10 minutes after mixing. To start reaction, 100 μL of 200 μmol/L substrate solution was added to there, 10 minutes later, the reaction was stopped by addition of 500 μL of 0.5 mol/L sulfuric acid, and then absorbance at […] was measured. Final concentration of test compound was a single concentration, 10 μmol/L in single well for initial screening and 6 concentrations, 10, 1 μmol/L, 100, 10, 1 nmol/L, 100 pmol/L in duplicate for assay to calculate 50% inhibitory concentration (IC50) which were used for assay. Percent inhibition was calculated according to the formula described below. Percent inhibition (%)=(A−B)/(A−C)×100
In formula, A means absorbance in wells without test compound, B means absorbance in wells with test compound, C means absorbance in blank wells.
IC50 value was calculated from percent inhibition in each concentration by nonlinear regression method.

[2] = tested on: potassium oxonate induced hyperuricemia; test: Blood hypouricemic effect, potassium oxonate induced hyperuricemia; assay type: in vivo; settings: Rattus norvegicus, po; 10 mg/kg orally; male SD rats; serum 2 hours after administration; read-out: Decrease (%) in UA concentration
Description: Effect of compound of the present invention as a test compound was studied on potassium oxonate induced hyperuricemia with male 7-week-old SD rats (Charles River Japan) and potassium oxonate (Aldrich) suspended in 1% gum arabic solution. Test compound was suspended in 0.5% CMC-Na solution, and then administered orally. Dosing was 10 mg/kg or 50 mg/kg. All volume of administered solution was 10 mL/kg. Potassium oxonate 250 mg/kg was administered to dorsal region of rats subcutaneously, 1 hour later each test compound was administered orally. For control group, only 0.5% CMC-Na solution as a vehicle was administrated. At 2 hours after administration of test compounds or vehicle, blood was collected under ether anesthesia, and serum was separated according to general method. Treated number was 5 for each group.
Measurement of concentration of uric acid was conducted with following prepared reagents. The deproteinization reagent was prepared in the following manner; 100 g of sodium tungstate was added to a 2 L flask, and exactly 75 mL of 85% phosphoric acid and 500 mL of water were added to the flask equipped with a reflux condenser, and heated for an hour. After cooling, the resulting faint yellow-green solution was diluted to 1 L exactly. Sodium carbonate-urea reagent was prepared in the following manner; 14 g of anhydrous sodium carbonate and 14 g of urea were dissolved in water and final volume of the solution was adjusted to 100 mL exactly. Phosphotungstic coloring reagent was prepared in 4-fold dilution of deproteinzation reagent described above with water. UA standard solution (10 mg/dL: Kyokuto pharmaceutical industrial CO., LTD) was used as an uric acid standard solution, and then serially diluted uric acid standard solution with purified water was also used for standard curve.
Three hundred μL of serum or standard was added to 2.1 mL of purified water, and then 150 μL of deproteination reagent was also added to the solution, followed by mixing. After incubating for 20 minutes, the mixture was centrifuged at 3000 rpm for 10 minutes. Sodium carbonate-urea reagent (0.5 mL) was added to 1.5 mL of supernatant, and the mixture was incubated for 20 minutes. Next, after addition of 250 μL of coloring reagent, further incubation was carried over 15 minutes. Absorbance at 660 nm was measured, and concentration of uric acid was calculated with standard curve. Percent decrease in concentration of uric acid was calculated by following formula. Percent decrease in concentration of uric acid (%)=(A−B)/A×100
In formula, A means average of concentration of blood uric acid in control group, B means average of concentration of blood uric acid in test compounds-treated group.

[3] = molecular target: T2, HEK293 cells forced to express URAT1 (Homo sapiens, UniProt Q96S37); test: URAT1 inhibitory effect, [8-14C] uric acid uptake; assay type: cell-based; settings: test compound 100 μmol/L, 20 μmol/L uric acid, 5 minutes uptake
T2 construct: host or cells: HEK293
T2 sequence (Q96S37 1-553): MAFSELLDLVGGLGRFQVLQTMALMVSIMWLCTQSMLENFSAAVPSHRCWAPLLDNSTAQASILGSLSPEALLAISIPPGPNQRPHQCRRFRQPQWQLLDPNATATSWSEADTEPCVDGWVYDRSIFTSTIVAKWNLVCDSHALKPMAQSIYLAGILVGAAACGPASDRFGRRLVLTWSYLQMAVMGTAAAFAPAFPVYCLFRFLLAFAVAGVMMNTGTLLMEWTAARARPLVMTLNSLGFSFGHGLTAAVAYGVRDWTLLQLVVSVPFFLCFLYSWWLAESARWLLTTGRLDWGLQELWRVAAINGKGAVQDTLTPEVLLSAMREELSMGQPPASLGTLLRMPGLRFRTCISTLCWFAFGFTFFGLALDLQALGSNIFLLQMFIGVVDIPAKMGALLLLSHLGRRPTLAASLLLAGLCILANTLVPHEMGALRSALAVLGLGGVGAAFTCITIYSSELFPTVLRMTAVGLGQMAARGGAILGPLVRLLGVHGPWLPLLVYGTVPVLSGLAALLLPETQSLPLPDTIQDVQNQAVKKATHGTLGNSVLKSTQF
Excerpt: DMEM containing 10% FBS (supplemented with 0.05% geneticin, Nissui Pharmaceutical Co., Ltd.), HEK293 cells forced to express URAT1 (HCS (Human cell Systems), (Fuji Biomedix)), HBSS as washing buffer and HBSS substituted with Na-gluconate (NaCl in HBSS was substituted with Na-gluconate) were used for assay. [8-^14C] uric acid (moravek) was used as an uric acid reagent and added to assay buffer at 20 μmol/L as a final concentration. Compounds of the present invention were used as a test compound, 20 mmol/L stock solution of each test compound (DMSO solution) was diluted appropriately, and then the diluted test compound solution was added to assay buffer at 100 μmol/L as a final concentration including 0.5% final concentration of DMSO.
To prepare assay plates, at first, cells on subculture petri dish were peeled off using treatment of 0.05% trypsin-EDTA solution, and then seeded on Biocoat Poly-D-Lysine Cellware 24 well plate (BECTON DICKINSON) at a density of 2×10^5 cells/well and cultured for 2 days.
For the uptake study, at first, culture medium was removed by aspiration and cells were washed twice with HBSS (37° C.), then the buffer was replaced with 1 mL of assay buffer (37° C.). Cells were pre-incubated for 10 minutes. And then, the buffer was removed by aspiration and 0.5 mL of radioisotope ligand solution incubated at 37° C. was added, then cells were incubated for 5 minutes. After uptake, radioisotope solution was removed by aspiration, and immediately cells were washed three times with ice-cold HBSS, followed by resolving by addition of 0.5 mL of 0.5 mol/L NaOH. Cell lysate solution was transferred to a vial or 24 well plate for Betaplate, and mixed with 0.5 mL of liquid scintillator (Optiphase ‘Super Mix’; Perkin Elmer). Radioisotope activity was measured (using Betaplate 1450). As mean count in control solution not including test compound was 100%, percent inhibition was calculated by determining percent decrease in mean count in solution including test compound from mean count in control solution.

T1 sequence (P80457 whole entry): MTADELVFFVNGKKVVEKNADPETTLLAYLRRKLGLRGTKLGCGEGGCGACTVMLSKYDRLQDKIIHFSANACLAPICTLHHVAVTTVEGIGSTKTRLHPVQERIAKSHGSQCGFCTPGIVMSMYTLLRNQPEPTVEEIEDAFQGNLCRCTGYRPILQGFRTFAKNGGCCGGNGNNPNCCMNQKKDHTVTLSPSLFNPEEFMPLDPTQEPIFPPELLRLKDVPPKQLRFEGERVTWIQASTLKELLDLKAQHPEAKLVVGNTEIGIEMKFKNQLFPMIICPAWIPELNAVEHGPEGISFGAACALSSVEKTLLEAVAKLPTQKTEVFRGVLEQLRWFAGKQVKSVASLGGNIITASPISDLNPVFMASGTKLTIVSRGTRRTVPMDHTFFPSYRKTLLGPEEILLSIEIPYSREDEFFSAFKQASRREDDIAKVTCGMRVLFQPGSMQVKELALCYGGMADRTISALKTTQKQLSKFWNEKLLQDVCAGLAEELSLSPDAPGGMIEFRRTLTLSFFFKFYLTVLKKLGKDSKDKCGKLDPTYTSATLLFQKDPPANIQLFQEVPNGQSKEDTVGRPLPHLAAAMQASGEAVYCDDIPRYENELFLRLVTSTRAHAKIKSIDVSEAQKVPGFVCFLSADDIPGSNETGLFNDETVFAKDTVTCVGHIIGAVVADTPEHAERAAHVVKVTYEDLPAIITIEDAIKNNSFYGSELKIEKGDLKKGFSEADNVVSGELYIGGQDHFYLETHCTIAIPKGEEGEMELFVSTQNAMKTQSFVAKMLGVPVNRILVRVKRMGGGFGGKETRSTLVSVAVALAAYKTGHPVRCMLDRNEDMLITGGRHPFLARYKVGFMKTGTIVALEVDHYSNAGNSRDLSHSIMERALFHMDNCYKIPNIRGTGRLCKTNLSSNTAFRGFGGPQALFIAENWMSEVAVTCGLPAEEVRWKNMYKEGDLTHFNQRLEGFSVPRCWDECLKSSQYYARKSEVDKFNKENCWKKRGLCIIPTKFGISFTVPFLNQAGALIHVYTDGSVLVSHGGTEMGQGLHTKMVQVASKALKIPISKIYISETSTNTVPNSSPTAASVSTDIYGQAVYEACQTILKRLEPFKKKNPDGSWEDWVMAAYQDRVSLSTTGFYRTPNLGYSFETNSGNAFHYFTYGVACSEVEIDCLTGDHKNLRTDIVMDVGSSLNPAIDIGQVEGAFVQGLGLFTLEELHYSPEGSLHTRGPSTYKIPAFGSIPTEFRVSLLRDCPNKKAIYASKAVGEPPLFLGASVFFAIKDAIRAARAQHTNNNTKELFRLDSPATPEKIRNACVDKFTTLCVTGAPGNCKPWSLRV

| SMILES | IC50 [1] [nM] | inhibition at 100 µM [3] [%] | inhibition in vivo at 10 mg/kg [2] [%] |
| --- | --- | --- | --- |
| N#Cc1cn(-c2ccc(C(=O)O)cc2)cc1-c1ccccc1 [XO-B327] | 4.9 |  | 74.1 |
| N#Cc1nn(-c2ccc(C(=O)O)cc2)nc1-c1ccccc1 [XO-B366] | 77.7 |  |  |
| Cc1ccccc1-c1cn(-c2ccc(C(=O)O)cc2)cc1C#N [XO-B395-1] | 3.59 |  | 79.1 |
| N#Cc1cn(-c2ccc(C(=O)O)cc2)cc1-c1ccccc1Cl [XO-B397] | 5.24 |  | 76.7 |
| COc1ccccc1-c1cn(-c2ccc(C(=O)O)cc2)cc1C#N [XO-B403] | 5.98 |  | 62.1 |
| Cn1cccc1-c1cn(-c2ccc(C(=O)O)cc2)cc1C#N [XO-B410] | 5 |  | 59.1 |
| N#Cc1cn(-c2ccc(C(=O)O)cc2)cc1-c1ccccc1C(F)(F)F [XO-B412] | 6.38 | 50.5 |  |
| N#Cc1cn(-c2ccc(C(=O)O)cc2)cc1-c1nccs1 [XO-B420] | 6.33 |  |  |
| N#Cc1cn(-c2ccc(C(=O)O)cc2)cc1-c1ccc(Cl)cc1 [XO-B421] | 5.71 |  | 57.8 |
| COc1ccc(-c2cn(-c3ccc(C(=O)O)cc3)cc2C#N)cc1 [XO-B422] | 3.56 |  | 79 |
| N#Cc1cn(-c2ccc(C(=O)O)cc2)cc1-c1ccc(C(F)(F)F)cc1 [XO-B428] | 5.09 |  | 68.3 |
| N#Cc1cn(-c2ccc(C(=O)O)cc2)cc1-c1ccccc1F [XO-B436] | 3.71 |  | 77.3 |
| N#Cc1cn(-c2ccc(C(=O)O)cc2)cc1-c1ccc(F)cc1 [XO-B438] | 5.03 |  | 69.3 |
| N#Cc1cn(-c2ccc(C(=O)O)cc2)c2ccccc12 [XO-CH146] | 50.5 | 92.1 |  |
| N#Cc1cn(-c2ccc(-c3nnn[nH]3)cc2)c2ccccc12 [XO-CH150] | 31.6 | 79.3 |  |
| Cc1c(C#N)c2ccccc2n1-c1ccc(C(=O)O)cc1 [XO-CH172] |  | 88.3 |  |
| N#Cc1cn(-c2ccc(C(=O)O)cc2)c2cc(C(F)(F)F)ccc12 [XO-CH206] |  | 98.1 |  |
| N#Cc1cn(-c2ccc(C(=O)O)cc2)c2ncccc12 [XO-KT10] |  | 92.3 |  |
| N#Cc1cnc2c(c1)c(C#N)cn2-c1ccc(C(=O)O)cc1 [XO-KT20] |  | 64.6 |  |
| N#Cc1nn(-c2ccc(C(=O)O)cc2)c2ccccc12 [XO-KT30] |  | 79.9 |  |
| N#Cc1cn(-c2ccc(-c3nnn[nH]3)cc2)nc1-c1ccccc1 [XO-TT473] | 16 |  |  |

Continued, in another order:

| IC50 [1] [nM] | inhibition at 100 µM [3] [%] | SMILES | inhibition in vivo at 10 mg/kg [2] [%] |
| --- | --- | --- | --- |
| 5.56 |  | Cc1ccc(-c2cn(-c3ccc(C(=O)O)cc3)cc2C#N)s1 [XO-B399-2] | 69.4 |
| 5.86 |  | N#Cc1cn(-c2ccc(C(=O)O)cc2)cc1-c1ccc(Cl)s1 [XO-B414] | 67.1 |
| 4.26 |  | Cc1ccc(-c2cn(-c3ccc(C(=O)O)cc3)cc2C#N)cc1 [XO-B423] | 66.6 |
| 15.2 |  | Cc1c(-c2ccccc2)c(C#N)cn1-c1ccc(C(=O)O)cc1 [XO-B440] | 57.6 |
| 26.7 | 93.8 | N#Cc1cn(-c2ccc(C(=O)O)cc2)c2ccc(Cl)cc12 [XO-CH160] |  |
| 57.1 | 92.5 | N#Cc1cn(-c2ccc(C(=O)O)cc2)c2ccc(F)cc12 [XO-CH168] |  |
|  | 95.7 | Cc1cccc2c(C#N)cn(-c3ccc(C(=O)O)cc3)c12 [XO-CH205] |  |
|  | 95.2 | N#Cc1cn(-c2ccc(C(=O)O)cc2)c2nc(Cl)ccc12 [XO-KT18] |  |
| 8.18 |  | N#Cc1cn(-c2ccc(C(=O)O)cc2)nc1-c1ccccc1 [XO-TT469] | 75 |
| 5.18 |  | N#Cc1cn(-c2ccc(C(=O)O)cc2)nc1-c1ccccc1Cl [XO-TT524] | 68.7 |
| 4.86 |  | Cc1ccc(-c2nn(-c3ccc(C(=O)O)cc3)cc2C#N)cc1 [XO-TT537] |  |
| 3.77 |  | COc1ccc(-c2nn(-c3ccc(C(=O)O)cc3)cc2C#N)cc1 [XO-TT544] | 71.1 |
| 5.21 |  | Cc1ccsc1-c1nn(-c2ccc(C(=O)O)cc2)cc1C#N [XO-TT545] | 75.8 |
| 5.59 |  | COc1cccc(-c2nn(-c3ccc(C(=O)O)cc3)cc2C#N)c1 [XO-TT552] |  |
| 5.44 |  | Cc1ccc(-c2nn(-c3ccc(C(=O)O)cc3)cc2C#N)s1 [XO-TT554] | 60.5 |
| 2.91 |  | N#Cc1cn(-c2ccc(C(=O)O)cc2)nc1-c1ccccc1F [XO-TT559] | 75.9 |
| 8.47 |  | N#Cc1cn(-c2ccc(C(=O)O)cc2)nc1-c1ccccc1C(F)(F)F [XO-TT561] |  |
| 4.12 |  | N#Cc1cn(-c2ccc(C(=O)O)cc2)nc1-c1ccc(F)cc1 [XO-TT572] | 56.1 |
| 4 |  | Cc1ccccc1-c1nn(-c2ccc(C(=O)O)cc2)cc1C#N [XO-TT573] | 66.3 |
| 5.52 |  | COc1ccccc1-c1nn(-c2ccc(C(=O)O)cc2)cc1C#N [XO-TT574] |  |
